Assay [1] deals with HOP-92. The assay can be described thus: NCI 60 cell panel SRB screen. The format is cell-based. To be noted: Homo sapiens; HOP-92, single dose 10 μM; read-out: percent cell growth promotion.
Assay [2] relates to K-562. As to the kind of experiment: NCI 60 cell panel SRB screen. The format is cell-based. To be noted: Homo sapiens, K562; K-562, single dose 10 μM; read-out: percent cell growth promotion.
The subject of assay [3] is SK-OV-3. As to the kind of experiment: NCI 60 cell panel SRB screen. The format is cell-based. The note with it: Homo sapiens; SK-OV-3, single dose 10 μM; read-out: percent cell growth promotion.
The subject of assay [4] is MOLT-4. As to the kind of experiment: NCI 60 cell panel SRB screen. The assay is classed as cell-based. The note with it: Homo sapiens; MOLT-4, single dose 10 μM; read-out: percent cell growth promotion.
Assay [5] relates to SF-268. The assay can be described thus: NCI 60 cell panel SRB screen. The assay is classed as cell-based. The note with it: Homo sapiens; SF-268, single dose 10 μM; read-out: percent cell growth promotion.
The subject of assay [6] is NCI/ADR-RES. As to the kind of experiment: NCI 60 cell panel SRB screen. The format is cell-based. The note with it: Homo sapiens, single dose 10 μM, read-out: percent cell growth promotion.
Assay [7] relates to NCI-H522. The assay can be described thus: NCI 60 cell panel SRB screen. The assay is classed as cell-based. To be noted: Homo sapiens; NCI-H522, single dose 10 μM; read-out: percent cell growth promotion.
In assay [8] the test system is MCF7. As to the kind of experiment: NCI 60 cell panel SRB screen. The assay is classed as cell-based. The note with it: Homo sapiens, MCF7, read-out: percent cell growth promotion.
Assay [9] concerns SF-295. As to the kind of experiment: NCI 60 cell panel SRB screen. The assay is classed as cell-based. The note with it: Homo sapiens; SF-295, single dose 10 μM; read-out: percent cell growth promotion.
In assay [10] the test system is ACHN. The assay can be described thus: NCI 60 cell panel SRB screen. To be noted: Homo sapiens, single dose 10 μM, read-out: percent cell growth promotion. The format is cell-based.
Assay [11] deals with NCI-H322M. As to the kind of experiment: NCI 60 cell panel SRB screen. The note with it: Homo sapiens, single dose 10 μM, read-out: percent cell growth promotion. The format is cell-based.
Assay [12] concerns A549/ATCC. As to the kind of experiment: NCI 60 cell panel SRB screen. The assay is classed as cell-based. The note with it: Homo sapiens, single dose 10 μM, read-out: percent cell growth promotion.
The subject of assay [13] is UO-31. As to the kind of experiment: NCI 60 cell panel SRB screen. The format is cell-based. To be noted: Homo sapiens; UO-31, single dose 10 μM; read-out: percent cell growth promotion.
Assay [14] deals with UACC-257. The assay can be described thus: NCI 60 cell panel SRB screen. The format is cell-based. The note with it: Homo sapiens, UACC-257, read-out: percent cell growth promotion.
Assay [15] has as its system MDA-MB-435. The assay can be described thus: NCI 60 cell panel SRB screen. The assay is classed as cell-based. To be noted: Homo sapiens, MDA-MB-435, read-out: percent cell growth promotion.
Assay [16] relates to RPMI-8226. The assay can be described thus: NCI 60 cell panel SRB screen. The format is cell-based. To be noted: Homo sapiens; RPMI-8226, single dose 10 μM; read-out: percent cell growth promotion.
The subject of assay [17] is SN12C. The assay can be described thus: NCI 60 cell panel SRB screen. The assay is classed as cell-based. To be noted: Homo sapiens, single dose 10 μM, read-out: percent cell growth promotion.
Assay [18] deals with T1, VEGFR-2 tyrosine kinase (Homo sapiens, UniProt P35968).
T1 construct: purchased BPS Bioscience 40301
T1 sequence (P35968 20-1356): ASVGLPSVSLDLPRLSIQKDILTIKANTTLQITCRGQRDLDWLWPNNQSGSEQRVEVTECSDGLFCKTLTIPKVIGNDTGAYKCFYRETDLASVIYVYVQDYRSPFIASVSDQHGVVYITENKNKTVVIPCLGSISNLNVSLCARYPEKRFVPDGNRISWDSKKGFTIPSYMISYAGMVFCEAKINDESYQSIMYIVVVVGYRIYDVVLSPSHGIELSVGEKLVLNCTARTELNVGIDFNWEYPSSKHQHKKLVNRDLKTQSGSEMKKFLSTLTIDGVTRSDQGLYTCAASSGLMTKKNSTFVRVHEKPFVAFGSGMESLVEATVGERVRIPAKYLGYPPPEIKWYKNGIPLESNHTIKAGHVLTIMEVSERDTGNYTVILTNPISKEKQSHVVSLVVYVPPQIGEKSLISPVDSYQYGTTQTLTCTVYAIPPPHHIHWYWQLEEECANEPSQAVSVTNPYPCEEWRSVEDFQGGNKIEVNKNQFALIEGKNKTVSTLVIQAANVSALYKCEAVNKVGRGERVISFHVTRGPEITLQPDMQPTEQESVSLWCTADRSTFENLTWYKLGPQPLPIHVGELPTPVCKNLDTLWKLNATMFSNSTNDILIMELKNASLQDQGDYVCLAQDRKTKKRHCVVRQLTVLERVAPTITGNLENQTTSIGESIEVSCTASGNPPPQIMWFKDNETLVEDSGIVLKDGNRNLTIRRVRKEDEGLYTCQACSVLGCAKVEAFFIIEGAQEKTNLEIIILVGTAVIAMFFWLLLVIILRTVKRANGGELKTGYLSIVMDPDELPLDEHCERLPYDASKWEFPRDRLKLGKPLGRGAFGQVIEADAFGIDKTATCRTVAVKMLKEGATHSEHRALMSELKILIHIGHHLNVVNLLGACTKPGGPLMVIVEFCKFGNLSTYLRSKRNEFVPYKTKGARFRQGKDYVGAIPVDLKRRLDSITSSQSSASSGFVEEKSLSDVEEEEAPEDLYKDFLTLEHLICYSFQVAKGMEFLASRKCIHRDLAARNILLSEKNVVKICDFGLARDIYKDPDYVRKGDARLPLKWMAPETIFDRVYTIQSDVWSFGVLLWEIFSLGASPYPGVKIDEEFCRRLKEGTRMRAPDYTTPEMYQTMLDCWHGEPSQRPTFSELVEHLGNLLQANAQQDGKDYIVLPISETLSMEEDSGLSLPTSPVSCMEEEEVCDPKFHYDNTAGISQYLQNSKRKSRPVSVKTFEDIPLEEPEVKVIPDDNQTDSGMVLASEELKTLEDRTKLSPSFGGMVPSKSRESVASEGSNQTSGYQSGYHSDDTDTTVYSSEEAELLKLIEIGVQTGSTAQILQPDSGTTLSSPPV
The assay can be described thus: In vitro VEGFR-2 tyrosine kinase assay (BPS Bioscience). The assay is classed as biochemical. To be noted: read-out: VEGFR-2 % inhibition; 10 μM concentration. As to the method:
The VEGFR tyrosine kinase assays were performed at BPS Bioscience (www.bpsbioscience.com). All the synthesised compounds representing the six series were evaluated for their ability to inhibit VEGFR-2 tyrosine kinase at single dose of 10 µM.
The VEGFR tyrosine kinase activity at single dose concentration of 10 μM was carried out by BPS Bioscience (www.bpsbioscience.com). VEGFR (BPS#40301) served as the enzyme source and Poly (Glu, Tyr) sodium salt, (4:1, Glu:Tyr) (Sigma#P7244) served as the standardized substrate & Kinase-Glo Plus Luminescence kinase assay kit (Promega#V3772). The IC50 determination was carried out where quality control testing is routinely performed on each of the targets to insure compliance to acceptable standards. ^33P-ATP was purchased from Perkin Elmer and ADP-Glo^TM was purchased from Promega. All other materials were of standard laboratory grade.
The VEGFR tyrosine kinase activity was performed using Kinase-Glo Plus luminescence kinase assay kit (Promega). It measures kinase activity by quantitating the amount of ATP remaining in solution following a kinase reaction. The luminescent signal from the assay is correlated with the amount of ATP present and is inversely correlated with the amount of kinase activity. The compounds were diluted to 100 μM in 10% DMSO and […] of the dilution was added to a […] reaction so that the final concentration of DMSO is 1% in all of reactions. All of the enzymatic reactions were conducted at 30 °C for 40 min. The 50 μl reaction mixture contains […], pH 7.4, […], 0.1 mg/ml BSA, 0.2 mg/ml Poly (Glu, Tyr) substrate, 10 μM ATP and VEGFR. After the enzymatic reaction, […] of Kinase-GloPlus Luminescence kinase assay solution (Promega) was added to each reaction and incubate the plate for 5 min at room temperature. Luminescence signal was measured using a BioTek Synergy 2 microplate reader. The protein kinase assays used to determine IC50 value were performed using ADP-GloTM assay kit from Promega which measures the generation of ADP by the protein kinase. Generation of ADP by the protein kinase reaction leads to an increase in luminescence signal in the presence of ADP-GloTM assay kit. The assay was started by incubating the reaction mixture in a 96-well plate at 30 °C for 30 min. After the 30 min incubation period, the assay was terminated by the addition of […] of ADP-GloTM Reagent (Promega). The 96 well plate was shaken and then incubated for 40 min at ambient temperature. […] of Kinase detection reagent was added, the 96-well reaction plate was then read using the ADP-Glo Luminescences Protocol on a GloMax plate reader (Promega: Catalog #E7031). Blank control was set up that included all the assay components except the addition of appropriate substrate (replace with equal volume of kinase assay buffer). The corrected activity for each protein kinase target was determined by removing the blank control value.
VEGFR activity assays were performed in duplicate at each concentration. The luminescence data were analyzed using the computer software, Graphpad Prism. The difference between luminescence intensities in the absence of VEGFR (Lut) and in the presence of VEGFR (Luc) was defined as 100% activity (Lut - Luc). […] IC50 determination for inhibitor against VEGFR was estimated by generating a graph of log inhibitor vs normalized response with variable using the Prism software.

For assay [19], the system named is NCI-H23. As to the kind of experiment: NCI 60 cell panel SRB screen. The assay is classed as cell-based. The note with it: Homo sapiens; NCI-H23, single dose 10 μM; read-out: percent cell growth promotion.
The subject of assay [20] is U251. As to the kind of experiment: NCI 60 cell panel SRB screen. The assay is classed as cell-based. To be noted: Homo sapiens, U-251; U251, single dose 10 μM; read-out: percent cell growth promotion.

The results in this text go back to PMC6691788, “Design and synthesis of phthalazine-based compounds as potent anticancer agents with potential antiangiogenic activity via VEGFR-2 inhibition” (Journal of Enzyme Inhibition and Medicinal Chemistry, 2019).

A word on the inhibition: it is the drop in the measured response relative to a control, in per cent. Take `Cc1nnc(N2CCN(c3ccccn3)CC2)c2ccccc12` [Compound 8i, 1-Methyl-4–(4-(pyridin-2-yl)piperazin-1-yl)phthalazine]: the activity at 10 µM in assay [1] turned out to be 119%; in assay [2] it was 101%; in assay [3], 108%; in assay [4], 96.1%; in assay [5], 106%; in assay [6], 105%. Moreover, the activity at 10 µM in assay [7] is 94.5%; in assay [8], 89.1%; in [9], 87.8%; in [10] it was 99.6%; in assay [11], 107%; in assay [12], 92.3%. Moreover, the activity at 10 µM in assay [13] is 102%; in [14], 98.5%; in [15] it was 99.6%; in assay [16], 104%; in [17], 104%; in assay [19], 106%. For the same compound, the activity at 10 µM in assay [20] stood at 98.6%. Moreover, the inhibition at 10 µM in assay [18] is 6%.

As for `O=C(Nc1ccc(Cl)cc1)Nc1ccc(Oc2nnc(Cl)c3ccccc23)cc1` [Compound 13b, 1–(4-Chlorophenyl)-3–(4-(4-chlorophthalazin-1-yloxy)phenyl)urea], the activity at 10 µM in [1] was found to be 104%; in assay [2], 93.2%; in assay [3], 88.6%; in assay [5], 85.8%; in [6], 83.6%; in [7], 52.5%. Also, the activity at 10 µM worked out at 86.2% in [8]; 91.6% in [9]; 80.7% in assay [10]; 99.1% in [11]; 78.2% in assay [12]; 53.9% in [13]. For the same compound, the activity at 10 µM was 89.9% in [14]; 93.9% in assay [15]; 87.7% in assay [16]; 91.4% in assay [17]; 89% in [19]; 86.7% in assay [20]. Further, the inhibition at 10 µM in [18] came out at 38%.
